Experimental data: PubChem BioAssay AID248 (DTP/NCI, 2004)
Where “and” joins values, the source holds several entries; their conditions need not be identical. Equal entries are not always repeated. Inconclusive results and toxic doses are left out. No stated cut-off is given here; in the data, active means T/C of 150% or more; inactive means T/C below 125%.

Tested on: L1210 leukemia ip in BDF1 mice, survival T/C
Assay: NCI In Vivo Anticancer Drug Screen. Data for tumor model L1210 Leukemia (intraperitoneal) in B6D2F1 (BDF1) mice
Conditions: endpoint: mean survival time, higher = longer survival
Procedure, shortened: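 Tumor cells were implanted, animals were treated, and survival was followed. The result divides the treated measurement by the vehicle-control measurement.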

[1] = dose: 100.0 mg/kg/injection, schedule: Q01DX009 (ip), vehicle: Klucel (hydroxypropylcellulose) (HPC)
[2] = dose: 100.0 mg/kg/injection, schedule: Q04DX003 (ip), vehicle: Klucel (hydroxypropylcellulose) (HPC)
[3] = dose: 200.0 mg/kg/injection, schedule: Q01DX009 (ip), vehicle: Klucel (hydroxypropylcellulose) (HPC)
[4] = dose: 200.0 mg/kg/injection, schedule: Q04DX003 (ip), vehicle: Klucel (hydroxypropylcellulose) (HPC)
[5] = dose: 400.0 mg/kg/injection, schedule: Q01DX009 (ip), vehicle: Klucel (hydroxypropylcellulose) (HPC)
[6] = dose: 400.0 mg/kg/injection, schedule: Q04DX003 (ip), vehicle: Klucel (hydroxypropylcellulose) (HPC)
[7] = dose: 25.0 mg/kg/injection, schedule: Q04DX003 (ip), vehicle: saline with Tween-80
[8] = dose: 50.0 mg/kg/injection, schedule: Q04DX003 (ip), vehicle: saline with Tween-80
[9] = dose: 100.0 mg/kg/injection, schedule: Q04DX003 (ip), vehicle: saline with Tween-80
[10] = dose: 12.5 mg/kg/injection, schedule: Q01DX009 (ip), vehicle: Klucel (hydroxypropylcellulose) (HPC)
[11] = dose: 25.0 mg/kg/injection, schedule: Q01DX009 (ip), vehicle: Klucel (hydroxypropylcellulose) (HPC)
[12] = dose: 50.0 mg/kg/injection, schedule: Q01DX001 (ip), vehicle: other
[13] = dose: 100.0 mg/kg/injection, schedule: Q01DX001 (ip), vehicle: other
[14] = dose: 100.0 mg/kg/injection, schedule: Q01DX001 (ip), vehicle: Klucel (hydroxypropylcellulose) (HPC)
[15] = dose: 200.0 mg/kg/injection, schedule: Q01DX001 (ip), vehicle: Klucel (hydroxypropylcellulose) (HPC)
[16] = dose: 100.0 mg/kg/injection, schedule: Q01DX001 (ip), vehicle: saline
[17] = dose: 200.0 mg/kg/injection, schedule: Q01DX001 (ip), vehicle: saline
[18] = dose: 400.0 mg/kg/injection, schedule: Q01DX001 (ip), vehicle: saline
[19] = dose: 50.0 mg/kg/injection, schedule: Q01DX009 (ip), vehicle: Klucel (hydroxypropylcellulose) (HPC)
[20] = dose: 100.0 mg/kg/injection, schedule: Q01DX001 (ip), vehicle: carboxymethylcellulose (CMC)
[21] = dose: 200.0 mg/kg/injection, schedule: Q01DX001 (ip), vehicle: carboxymethylcellulose (CMC)
[22] = dose: 400.0 mg/kg/injection, schedule: Q01DX001 (ip), vehicle: carboxymethylcellulose (CMC)

Measured: T/C

CCOC(=O)/C(C#N)=C/c1ccc(O)c(OC)c1
inactive: [1] 101 % of control | [2] 102 % of control | [3] 94 % of control | [4] 96 % of control | [5] 89 % of control | [6] 95 % of control

CC(=O)CC(Br)CBr (stereo not drawn)
inactive: [7] 91 % of control | [8] 98 % of control | [9] 100 % of control

CC(=O)CC(=O)Nc1ccccc1Cl
inactive: [2] 89 % of control | [4] 92 % of control | [6] 96 % of control

O=C(CBr)Nc1ccc(Cl)cc1
inactive: dose: 2.0 mg/kg/injection, schedule: Q04DX003 (ip), vehicle: Klucel (hydroxypropylcellulose) (HPC) 96 % of control | dose: 3.12 mg/kg/injection, schedule: Q01DX009 (ip), vehicle: Klucel (hydroxypropylcellulose) (HPC) 92 % of control | dose: 4.0 mg/kg/injection, schedule: Q04DX003 (ip), vehicle: Klucel (hydroxypropylcellulose) (HPC) 104 % of control | dose: 6.25 mg/kg/injection, schedule: Q01DX009 (ip), vehicle: Klucel (hydroxypropylcellulose) (HPC) 102 % of control | dose: 9.0 mg/kg/injection, schedule: Q04DX003 (ip), vehicle: Klucel (hydroxypropylcellulose) (HPC) 100 % of control | [10] 89 % of control | dose: 19.0 mg/kg/injection, schedule: Q04DX003 (ip), vehicle: Klucel (hydroxypropylcellulose) (HPC) 104 % of control and 91 % of control | [11] 89 % of control | [12] 95 % of control | [13] 101 % of control

CCOC(=O)/C(C#N)=C/c1cccn1Cc1ccc2c(c1)OCO2
inactive: dose: 25.0 mg/kg/injection, schedule: Q04DX002 (ip), vehicle: saline 101 % of control | dose: 50.0 mg/kg/injection, schedule: Q04DX002 (ip), vehicle: saline 105 % of control | dose: 100.0 mg/kg/injection, schedule: Q04DX002 (ip), vehicle: saline 105 % of control

CC(=O)Nc1ccc(SC(=O)N(C)C)cc1
inactive: dose: 12.5 mg/kg/injection, schedule: Q01DX009 (ip), vehicle: saline + alcohol 90 % of control | dose: 25.0 mg/kg/injection, schedule: Q01DX009 (ip), vehicle: saline + alcohol 95 % of control | [7] 98 % of control | dose: 50.0 mg/kg/injection, schedule: Q01DX009 (ip), vehicle: saline + alcohol 101 % of control | [8] 104 % of control | [9] 103 % of control

Cc1ccc(S(=O)(=O)OC2C(C)C3C2S(=O)(=O)C3(C)C)cc1 (stereo not drawn)
inactive: [9] 102 % of control | dose: 200.0 mg/kg/injection, schedule: Q04DX003 (ip), vehicle: saline with Tween-80 104 % of control | dose: 400.0 mg/kg/injection, schedule: Q04DX003 (ip), vehicle: saline with Tween-80 102 % of control

O=c1[nH][nH]c(=O)c2ccccc12
inactive: [12] 103 % of control | [13] 103 % of control | [1] 111 % of control and 116 % of control | [2] 108 % of control | dose: 200.0 mg/kg/injection, schedule: Q01DX001 (ip), vehicle: other 100 % of control | [3] 106 % of control and 105 % of control | [4] 110 % of control | dose: 400.0 mg/kg/injection, schedule: Q01DX001 (ip), vehicle: other 103 % of control | [5] 100 % of control | [6] 104 % of control

COc1cc(NC(=O)Oc2ccc([N+](=O)[O-])cc2)ccc1S(=O)(=O)F
inactive: dose: 100.0 mg/kg/injection, schedule: Q01DX009 (ip), vehicle: saline with Tween-80 94 % of control | dose: 200.0 mg/kg/injection, schedule: Q01DX009 (ip), vehicle: saline with Tween-80 103 % of control | dose: 400.0 mg/kg/injection, schedule: Q01DX009 (ip), vehicle: saline with Tween-80 103 % of control

CC1(C)OCC(C(OC(=O)c2ccc([N+](=O)[O-])cc2)C(OC(=O)c2ccc([N+](=O)[O-])cc2)C2COC(C)(C)O2)O1 (stereo not drawn)
inactive: [14] 103 % of control | [15] 100 % of control | dose: 400.0 mg/kg/injection, schedule: Q01DX001 (ip), vehicle: Klucel (hydroxypropylcellulose) (HPC) 100 % of control

CCCCCCCCCCCCCCOS(=O)(=O)c1ccc(C)cc1
inactive: dose: 50.0 mg/kg/injection, schedule: Q01DX001 (ip), vehicle: saline 102 % of control | [16] 102 % of control | [17] 96 % of control | [18] 100 % of control

Cc1ccc([N+](=O)[O-])cc1NC(=O)NCCO
inactive: dose: 100.0 mg/kg/injection, schedule: Q04DX003 (ip), vehicle: saline 106 % of control | dose: 200.0 mg/kg/injection, schedule: Q04DX003 (ip), vehicle: saline 106 % of control | dose: 400.0 mg/kg/injection, schedule: Q04DX003 (ip), vehicle: saline 103 % of control

CC(C)S(=O)(=O)/C(Cl)=C(/Cl)C(Cl)=C(Cl)Cl
inactive: [10] 106 % of control | [11] 101 % of control | [19] 95 % of control | [1] 87 % of control

Nc1ncnc2nc(-c3ccc(-c4ccccc4)cc3)[nH]c12
inactive: dose: 50.0 mg/kg/injection, schedule: Q01DX001 (ip), vehicle: Klucel (hydroxypropylcellulose) (HPC) 92 % of control | [14] 88 % of control | [15] 97 % of control

Cc1ccc2nc3c4ccccc4scc-3c2c1
inactive: dose: 100.0 mg/kg/injection, schedule: Q04DX003 (ip), vehicle: acetone 93 % of control

Cc1ncc(CC(=O)O)c2c1OC(C)(C)OC2
inactive: [20] 101 % of control | [21] 106 % of control | [22] 98 % of control

O=[N+]([O-])c1cc(Cl)cc2c1-c1c(Cl)cc(Cl)cc1/C2=N/O
inactive: [11] 106 % of control | [19] 94 % of control | [2] 101 % of control

O=C(COc1ccccc1)N(O)c1ccc(/C=C/c2ccccc2)cc1
inactive: [20] 93 % of control | [21] 95 % of control | [22] 88 % of control

Brc1c(Br)c(Br)c(Br)c(Br)c1Br
inactive: [16] 93 % of control | [17] 92 % of control | [18] 98 % of control

COc1ccc(/C=C2/Oc3cc(O)ccc3C2=O)cc1
inactive: dose: 100.0 mg/kg/injection, schedule: Q01DX001 (ip), vehicle: saline with Tween-80 90 % of control | dose: 200.0 mg/kg/injection, schedule: Q01DX001 (ip), vehicle: saline with Tween-80 93 % of control | dose: 400.0 mg/kg/injection, schedule: Q01DX001 (ip), vehicle: saline with Tween-80 86 % of control

Cc1noc(N)c1C#N
inactive: dose: 100.0 mg/kg/injection, schedule: Q04DX002 (ip), vehicle: saline with Tween-80 100 % of control | dose: 200.0 mg/kg/injection, schedule: Q04DX002 (ip), vehicle: saline with Tween-80 95 % of control | dose: 400.0 mg/kg/injection, schedule: Q04DX002 (ip), vehicle: saline with Tween-80 89 % of control
